Data as given in patent US12599136B2, “Substituted isophthalic acid diamides and their use as herbicides” (Bayer Aktiengesellschaft, priority 2020, dated 2026).

Assays:
Assay type in all cases: in vivo
[1] = system: Hordeum murinum; assay: Post-emergence herbicidal action against HORMU
Summary of the method: (§1)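 Weeds in sandy loam soil received a post-emergence spray at the one-leaf stage. Compounds were applied as WP or EC in water, 600 to 800 l/ha, with 0.2% wetting agent. Activity in % was judged visually after roughly 3 weeks against untreated plants.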

[2] = system: Avena fatua; assay: Post-emergence herbicidal action against AVEFA; settings: for Post-emergence action against AVEFA in %: visual assessment about 3 weeks after treatment
Summary of the method: as §1

[3] = system: Polygonum convolvulus; assay: Post-emergence herbicidal action against POLCO; settings: 80 g/ha, visual assessment about 3 weeks after treatment
Summary of the method: as §1

[4] = system: Stellaria media; assay: Pre-emergence herbicidal action against STEME
Summary of the method: (§2)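 Visual rating at 3 weeks vs untreated pots; 0–100% scale, 100% = plants died. Treatment: aqueous WP/EC spray onto covering soil, 600–800 l/ha, 0.2% wetter, seeds in sandy loam.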

[5] = system: Hordeum murinum; assay: Pre-emergence herbicidal action against HORMU; settings: visual score after 3 weeks vs untreated controls
Summary of the method: as §2

[6] = system: Stellaria media; assay: Post-emergence herbicidal action against STEME; settings: for Post-emergence action against STEME in %: visual assessment about 3 weeks after treatment
Summary of the method: as §1

[7] = system: Veronica persica; assay: Pre-emergence herbicidal action against VERPE; settings: 320 g/ha
Summary of the method: as §2

[8] = system: Setaria viridis; assay: Pre-emergence herbicidal action against SETVI
Summary of the method: as §2

[9] = system: Echinochloa crus-galli; assay: Post-emergence herbicidal action against ECHCG; settings: visual assessment about 3 weeks after treatment
Summary of the method: as §1

[10] = system: Avena fatua; assay: Pre-emergence herbicidal action against AVEFA; settings: visual score after 3 weeks vs untreated controls
Summary of the method: as §2

[11] = system: Polygonum convolvulus; assay: Pre-emergence herbicidal action against POLCO; settings: 320 g/ha
Summary of the method: as §2

[12] = system: Veronica persica; assay: Post-emergence herbicidal action against VERPE; settings: visual assessment about 3 weeks after treatment
Summary of the method: as §1

[13] = system: Amaranthus retroflexus; assay: Pre-emergence herbicidal action against AMARE; settings: visual score after 3 weeks vs untreated controls
Summary of the method: as §2

[14] = system: Alopecurus myosuroides; assay: Pre-emergence herbicidal action against ALOMY; settings: visual score after 3 weeks vs untreated controls
Summary of the method: as §2

[15] = system: Lolium rigidum; assay: Post-emergence herbicidal action against LOLRI; settings: 80 g/ha
Summary of the method: as §1

[16] = system: Abutilon theophrasti; assay: Pre-emergence herbicidal action against ABUTH; settings: visual score after 3 weeks vs untreated controls
Summary of the method: as §2

[17] = system: Alopecurus myosuroides; assay: Post-emergence herbicidal action against ALOMY
Summary of the method: as §1

[18] = system: Cyperus esculentus; assay: Pre-emergence herbicidal action against CYPES; settings: 320 g/ha; visual score after 3 weeks vs untreated controls
Summary of the method: as §2

[19] = system: Viola tricolor; assay: Post-emergence herbicidal action against VIOTR
Summary of the method: as §1

[20] = system: Matricaria inodora; assay: Post-emergence herbicidal action against MATIN; settings: for Post-emergence action against MATIN in %: visual assessment about 3 weeks after treatment
Summary of the method: as §1

[21] = system: Lolium rigidum; assay: Pre-emergence herbicidal action against LOLRI
Summary of the method: as §2

[22] = system: Matricaria inodora; assay: Pre-emergence herbicidal action against MATIN; settings: visual score after 3 weeks vs untreated controls
Summary of the method: as §2

[23] = system: Cyperus esculentus; assay: Post-emergence herbicidal action against CYPES; settings: visual assessment about 3 weeks after treatment
Summary of the method: as §1

[24] = system: Pharbitis purpurea; assay: Pre-emergence herbicidal action against PHBPU; settings: 320 g/ha; visual score after 3 weeks vs untreated controls
Summary of the method: as §2

[25] = system: Echinochloa crus-galli; assay: Pre-emergence herbicidal action against ECHCG; settings: visual score after 3 weeks vs untreated controls
Summary of the method: as §2

[26] = system: Abutilon theophrasti; assay: Post-emergence herbicidal action against ABUTH
Summary of the method: as §1

[27] = system: Setaria viridis; assay: Post-emergence herbicidal action against SETVI; settings: for Post-emergence action against SETVI in %: visual assessment about 3 weeks after treatment
Summary of the method: as §1

[28] = system: Pharbitis purpurea; assay: Post-emergence herbicidal action against PHBPU; settings: for Post-emergence action against PHBPU in %: visual assessment about 3 weeks after treatment
Summary of the method: as §1

[29] = system: Amaranthus retroflexus; assay: Post-emergence herbicidal action against AMARE; settings: visual assessment about 3 weeks after treatment
Summary of the method: as §1

[30] = system: Viola tricolor; assay: Pre-emergence herbicidal action against VIOTR
Summary of the method: as §2

[31] = comparative experiment, 5 g a.i./ha

Structure (SMILES): CCn1nnnc1NC(=O)c1ccc(C(F)(F)F)c(C(=O)N(C)C)c1Cl [Example 2-123]
- Post-emergence action against HORMU in % ([1]; 20 g/ha): 90%
- Post-emergence action against HORMU in % ([1]; 80 g/ha): 100%
- Post-emergence action against AVEFA in % ([2]; 5 g/ha): 80%
- Post-emergence action against AVEFA in % ([2]; 20 g/ha): 100%
- Post-emergence action against AVEFA in % ([2]; 80 g/ha): 100%
- Herbicidal action against AVEFA [2, 31]: 80
- Post-emergence action against POLCO in % [3]: 90%
- Pre-emergence action against STEME ([4]; 20 g/ha): 90%
- Pre-emergence action against STEME ([4]; 80 g/ha): 100%
- Pre-emergence action against STEME ([4]; 320 g/ha): 100%
- Pre-emergence action against HORMU ([5]; 80 g/ha): 80%
- Pre-emergence action against HORMU ([5]; 320 g/ha): 100%
- Post-emergence action against STEME in % ([6]; 5 g/ha): 100%
- Post-emergence action against STEME in % ([6]; 20 g/ha): 100%
- Post-emergence action against STEME in % ([6]; 80 g/ha): 100%
- Herbicidal action against STEME [6, 31]: 100
- Pre-emergence action against VERPE [7]: 100%
- Pre-emergence action against SETVI ([8]; 20 g/ha): 90%
- Pre-emergence action against SETVI ([8]; 80 g/ha): 100%
- Pre-emergence action against SETVI ([8]; 320 g/ha): 100%
- Post-emergence action against ECHCG in % ([9]; 5 g/ha): 100%
- Post-emergence action against ECHCG in % ([9]; 20 g/ha): 100%
- Post-emergence action against ECHCG in % ([9]; 80 g/ha): 100%
- Pre-emergence action against AVEFA ([10]; 80 g/ha): 90%
- Pre-emergence action against AVEFA ([10]; 320 g/ha): 100%
- Pre-emergence action against POLCO [11]: 80%
- Post-emergence action against VERPE in % ([12]; 20 g/ha): 80%
- Post-emergence action against VERPE in % ([12]; 80 g/ha): 100%
- Pre-emergence action against AMARE ([13]; 20 g/ha): 90%
- Pre-emergence action against AMARE ([13]; 80 g/ha): 100%
- Pre-emergence action against AMARE ([13]; 320 g/ha): 100%
- Pre-emergence action against ALOMY ([14]; 80 g/ha): 90%
- Pre-emergence action against ALOMY ([14]; 320 g/ha): 100%
- Post-emergence action against LOLRI in % [15]: 100%
- Pre-emergence action against ABUTH ([16]; 20 g/ha): 100%
- Pre-emergence action against ABUTH ([16]; 80 g/ha): 100%
- Pre-emergence action against ABUTH ([16]; Dosage column 320 g/ha (heading prints 3200 g/ha)): 100%
- Post-emergence action against ALOMY ([17]; 5 g/ha): 90%
- Post-emergence action against ALOMY ([17]; 20 g/ha): 100%
- Post-emergence action against ALOMY ([17]; 80 g/ha): 100%
- Herbicidal action against ALOMY [17, 31]: 90
- Pre-emergence action against CYPES [18]: 80%
- Post-emergence action against VIOTR in % ([19]; 20 g/ha): 100%
- Post-emergence action against VIOTR in % ([19]; 80 g/ha): 100%
- Post-emergence action against MATIN in % ([20]; 5 g/ha): 90%
- Post-emergence action against MATIN in % ([20]; 20 g/ha): 90%
- Post-emergence action against MATIN in % ([20]; 80 g/ha): 100%
- Herbicidal action against MATIN [20, 31]: 90
- Pre-emergence action against LOLRI ([21]; 80 g/ha): 80%
- Pre-emergence action against LOLRI ([21]; 320 g/ha): 100%
- Pre-emergence action against MATIN ([22]; 80 g/ha): 100%
- Pre-emergence action against MATIN ([22]; 320 g/ha): 100%
- Post-emergence action against CYPES in % ([23]; 5 g/ha): 80%
- Post-emergence action against CYPES in % ([23]; 20 g/ha): 80%
- Post-emergence action against CYPES in % ([23]; 80 g/ha): 90%
- Pre-emergence action against PHBPU [24]: 80%
- Pre-emergence action against ECHCG ([25]; 20 g/ha): 80%
- Pre-emergence action against ECHCG ([25]; 80 g/ha): 100%
- Pre-emergence action against ECHCG ([25]; 320 g/ha): 100%
- Post-emergence action against ABUTH ([26]; 5 g/ha): 100%
- Post-emergence action against ABUTH ([26]; 20 g/ha): 100%
- Post-emergence action against ABUTH ([26]; 80 g/ha): 100%
- Post-emergence action against SETVI in % ([27]; 5 g/ha): 100%
- Post-emergence action against SETVI in % ([27]; 20 g/ha): 100%
- Post-emergence action against SETVI in % ([27]; 80 g/ha): 100%
- Herbicidal action against SETVI [27, 31]: 100
- Post-emergence action against PHBPU in % ([28]; 5 g/ha): 80%
- Post-emergence action against PHBPU in % ([28]; 20 g/ha): 90%
- Post-emergence action against PHBPU in % ([28]; 80 g/ha): 100%
- Herbicidal action against PHBPU [28, 31]: 80
- Post-emergence action against AMARE in % ([29]; 5 g/ha): 100%
- Post-emergence action against AMARE in % ([29]; 20 g/ha): 100%
- Post-emergence action against AMARE in % ([29]; 80 g/ha): 100%
- Pre-emergence action against VIOTR ([30]; 80 g/ha): 90%
- Pre-emergence action against VIOTR ([30]; 320 g/ha): 100%
